Experimental data taken from US20100311714A1, “1H-IMIDAZO[4,5-c]QUINOLINONE COMPOUNDS” (priority 2009, published 2010).

What was measured:
PI3K beta = target: T1, PI3K beta (Homo sapiens, UniProt P42338); assay: PI3K beta kinase assay (Kinase-Glo luminescence); format: biochemical; settings: read-out: EPK_PI3Kbeta/IC50
T1 construct: for the full-length p110-b subunit are generated and fused by overlapping PCR; His tag (C); made in house; host or cells: baculovirus BV949; Tn5 (Trichoplusia ni) or TiniPro insect cells
T1 sequence (P42338 with tags, fused parts or gaps limits assumed): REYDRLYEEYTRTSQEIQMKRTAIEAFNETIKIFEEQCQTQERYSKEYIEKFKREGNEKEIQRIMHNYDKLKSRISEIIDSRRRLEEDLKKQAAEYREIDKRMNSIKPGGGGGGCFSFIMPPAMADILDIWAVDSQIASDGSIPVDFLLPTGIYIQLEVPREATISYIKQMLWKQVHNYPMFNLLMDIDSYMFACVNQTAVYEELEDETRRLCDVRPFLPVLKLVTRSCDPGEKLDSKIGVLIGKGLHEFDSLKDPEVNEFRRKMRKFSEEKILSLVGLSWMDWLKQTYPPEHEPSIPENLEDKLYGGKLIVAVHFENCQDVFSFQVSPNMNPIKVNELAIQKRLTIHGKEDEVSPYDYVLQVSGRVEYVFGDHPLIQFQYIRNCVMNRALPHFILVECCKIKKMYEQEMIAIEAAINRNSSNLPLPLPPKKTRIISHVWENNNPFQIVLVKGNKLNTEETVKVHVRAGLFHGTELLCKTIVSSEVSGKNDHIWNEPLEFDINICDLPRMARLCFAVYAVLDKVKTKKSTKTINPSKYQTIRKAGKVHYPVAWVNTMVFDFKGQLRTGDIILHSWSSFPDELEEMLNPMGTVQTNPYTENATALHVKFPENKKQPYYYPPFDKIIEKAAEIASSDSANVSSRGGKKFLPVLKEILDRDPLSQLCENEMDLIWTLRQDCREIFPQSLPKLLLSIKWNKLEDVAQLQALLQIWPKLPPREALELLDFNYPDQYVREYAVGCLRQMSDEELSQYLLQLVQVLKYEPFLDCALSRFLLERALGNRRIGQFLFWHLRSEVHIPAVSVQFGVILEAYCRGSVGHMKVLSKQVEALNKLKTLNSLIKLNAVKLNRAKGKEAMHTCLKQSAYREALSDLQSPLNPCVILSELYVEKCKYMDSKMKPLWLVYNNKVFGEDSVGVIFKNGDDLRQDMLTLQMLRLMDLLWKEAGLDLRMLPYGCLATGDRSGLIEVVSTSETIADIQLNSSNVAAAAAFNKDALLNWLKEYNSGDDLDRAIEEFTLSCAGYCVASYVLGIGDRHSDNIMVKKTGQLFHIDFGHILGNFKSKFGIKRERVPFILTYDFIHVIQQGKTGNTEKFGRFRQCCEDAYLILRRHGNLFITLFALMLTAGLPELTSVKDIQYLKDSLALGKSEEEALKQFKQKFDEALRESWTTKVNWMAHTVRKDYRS
Method in brief: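 PI3Kβ construct BV949 (p85 iSH2–p110β full-length, C-His), 25 nM, reacted with 1 μM ATP and 10 μg/mL phosphatidylinositol in Tris pH 7.5, MgCl2, NaCl, CHAPS, DTT buffer, 60 min at room temperature. Remaining ATP by Kinase-Glo luminescence; IC50 from 4-parameter logistic fit of 8 concentrations.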

PI3K alfa = target: T2, PI3K alfa (Homo sapiens, UniProt P42336); assay: PI3K alpha kinase assay (Kinase-Glo luminescence); format: biochemical; settings: read-out: EPK_PI3Kalfa/IC50
T2 construct: His tag (C); made in house; host or cells: baculovirus BV1075; Tn5 (Trichoplusia ni) or TiniPro insect cells
T2 sequence (P42336 with tags, fused parts or gaps limits assumed): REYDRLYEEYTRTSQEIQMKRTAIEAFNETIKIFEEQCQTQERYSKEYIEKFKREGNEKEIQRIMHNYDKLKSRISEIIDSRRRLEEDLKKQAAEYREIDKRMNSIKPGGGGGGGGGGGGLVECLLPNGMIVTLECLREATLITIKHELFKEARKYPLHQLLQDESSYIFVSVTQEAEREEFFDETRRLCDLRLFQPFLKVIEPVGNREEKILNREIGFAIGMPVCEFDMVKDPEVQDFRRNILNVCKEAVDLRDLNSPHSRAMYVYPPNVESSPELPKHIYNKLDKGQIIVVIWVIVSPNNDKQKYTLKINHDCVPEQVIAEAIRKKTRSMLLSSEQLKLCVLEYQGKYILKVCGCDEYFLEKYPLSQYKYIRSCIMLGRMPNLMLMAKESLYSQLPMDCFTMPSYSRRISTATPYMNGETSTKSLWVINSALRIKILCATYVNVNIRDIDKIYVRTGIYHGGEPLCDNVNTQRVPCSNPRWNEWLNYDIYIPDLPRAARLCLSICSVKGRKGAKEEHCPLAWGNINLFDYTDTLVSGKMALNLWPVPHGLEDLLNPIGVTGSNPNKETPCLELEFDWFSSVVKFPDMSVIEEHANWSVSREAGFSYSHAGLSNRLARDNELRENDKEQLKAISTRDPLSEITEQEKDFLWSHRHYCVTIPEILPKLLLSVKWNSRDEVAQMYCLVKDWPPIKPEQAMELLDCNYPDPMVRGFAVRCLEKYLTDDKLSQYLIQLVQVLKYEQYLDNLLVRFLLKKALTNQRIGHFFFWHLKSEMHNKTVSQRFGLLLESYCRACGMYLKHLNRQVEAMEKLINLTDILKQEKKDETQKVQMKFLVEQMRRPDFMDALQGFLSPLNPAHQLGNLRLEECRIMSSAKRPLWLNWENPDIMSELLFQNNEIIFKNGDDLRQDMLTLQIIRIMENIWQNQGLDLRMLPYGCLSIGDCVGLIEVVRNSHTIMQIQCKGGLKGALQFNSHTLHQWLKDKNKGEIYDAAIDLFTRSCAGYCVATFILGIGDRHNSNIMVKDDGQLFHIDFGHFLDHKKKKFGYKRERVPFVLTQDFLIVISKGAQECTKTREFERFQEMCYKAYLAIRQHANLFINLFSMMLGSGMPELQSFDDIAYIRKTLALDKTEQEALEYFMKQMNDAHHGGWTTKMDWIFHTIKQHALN
Method in brief: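 Kinase-Glo luminescence read of ATP remaining after PI3Kα (10 nM) phosphorylates 10 μg/mL bovine liver phosphatidylinositol with 1 μM ATP, pH 7.5 TRIS, 3 mM MgCl2, 0.05% CHAPS; 60 min at room temperature. IC50 from 4-parameter logistic fit over 8 concentrations.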

IC50 (PI3K beta): 45 nM | IC50 (PI3K alfa): 5 nM
Compound: COc1ccc(-n2c(=O)n(C)c3cnc4ccc(-c5cnc(N(C)C)nc5)cc4c32)c(Cl)n1 [Example 18.3, 1-(2-Chloro-6-methoxy-pyridin-3-yl)-8-(2-dimethylamino-pyrimidin-5-yl)-3-methyl-1,3-dihydro-imidazo[4,5-c]quinolin-2-one]
